Patent US10011597B2 (APOGLYX AB, priority 2014, dated 2018)

Molecular target: T1, human aquaporin 9 (Homo sapiens, UniProt O43315)
T1 construct: expressed in transfected cells; host or cells: Human AQP9 cell line with tetracycline added to the medium
T1 sequence (O43315 1-295): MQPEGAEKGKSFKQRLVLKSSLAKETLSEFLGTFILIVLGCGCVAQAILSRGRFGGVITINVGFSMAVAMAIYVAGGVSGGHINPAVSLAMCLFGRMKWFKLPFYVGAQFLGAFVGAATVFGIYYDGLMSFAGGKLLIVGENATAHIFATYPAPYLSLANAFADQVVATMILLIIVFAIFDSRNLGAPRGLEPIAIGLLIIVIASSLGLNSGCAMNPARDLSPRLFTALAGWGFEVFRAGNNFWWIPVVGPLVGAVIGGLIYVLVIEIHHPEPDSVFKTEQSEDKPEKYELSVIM
Experiment: Calcein quenching fluostar assay
Type: cell-based
Conditions: inhibition of human aquaporin 9; Human AQP9 cell line, tetracyclin-induced; 25° C.
Procedure: Calcein Quenching Fluostar Assay
A calcein quenching fluostar assay was performed in order to investigate the biological activity of the newly synthesized examples 1 to 57. This type of assay is disclosed in J. Biol. Chem., 2011, 286, 44319-44325 and Am. J. Physiol. Renal Physiol. (2010), 298, F224-230.
1) Two days prior to commencement of the assay, seed 10,000 cells/well of 96 well black clear bottom plate (Greiner Poly-lysin plate). A 1:1 mix of Dulbecco's Modified Eagle's Medium:Nutrient Mixture F-12 (DMEM: F12) was obtained from Gibco. Tetracycline stock of 5 mg/ml in 96% ethanol is used. Medium:DMEM/F12/10% Donor Bovine Serum, Human AQP9 cell line+1:270,000 tetracyclin, mouse AQP9 cell line+1:2,700,000 tetracycline.
2) Day of assay: Flick/slam off the medium and add 50 μl/well of loading solution: 5 ml DMEM/F12/10% Donor Bovine Serum, 25 μl Calcein AM—from freshly dissolved aliquot in 50 μl DMSO (VWR #734-1434), and 100 μl Probenecid.
3) Incubate the well for 90 minutes at 37° C.
4) Perform one wash with 75 μl wash buffer.
5) Add 75 μl of an example compound prepared in wash buffer per well.
Example compounds are prepared in 500 μl U bottom PP plates (NUNC). […] Substance in DMSO are added to row A; 180 μl of wash buffer+1% DMSO are added to rows B-H. 90 μl from row A are transferred and mixed with all other wells (up to row G) to make a 3-fold dilution series.
6) Assay in FLUOstar Optima at 25° C. Settings buffer addition at 135 μl seconds, add 75 μl/well, record time course for 30 seconds, add sucrose buffer 3.6 seconds into recording.
7) Normalization to initial in Excel.
8) Fit to “exponential decay” function in GraphPad Prism 5.0, then arrange half live shrinking values according to wells and fit dose-response curves.

SMILES | IC50 [nM]
Cn1c(SCC(=O)Nc2nnc(-c3ccc(F)cc3)s2)nnc1-c1ccc(F)cc1 [Example 1, N-[5-(4-fluorophenyl)-1,3,4-thiadizole-2-yl]-2-{[5-(4-fluorophenyl)-4-methyl-4H-1,2,4-triazole-3-yl]sulfanyl}acetamide] | 393
CCn1c(SCC(=O)Nc2nnc(-c3ccc(OC)cc3)s2)nnc1-c1ccc(OC)cc1 [Example 16, 2-{[4-Ethyl-5-(4-methoxyphenyl)-4H-1,2,4-triazol-3-yl]sulfanyl}-N-[5-(4-methoxyphenyl)-1,3,4-thiadiazol-2-yl]acetamide] | 269
CCn1c(SCC(=O)Nc2nnc(-c3ccc(F)cc3)s2)nnc1-c1cccnc1 [Example 30, 2-{[4-Ethyl-5-(pyridin-3-yl)-4H-1,2,4-triazol-3-yl]sulfanyl}-N-[5-(4-fluorophenyl)-1,3,4-thiadiazol-2-yl]acetamide] | 110
COc1ccc(-c2nnc(NC(=O)CSc3nnc(-c4ccc(F)cc4)n3C3CC3)s2)cc1 [Example 33, 2-{[4-Cyclopropyl-5-(4-fluorophenyl)-4H-1,2,4-triazol-3-yl]sulfanyl}-N-[5-(4-methoxyphenyl)-1,3,4-thiadiazol-2-yl]acetamide] | 978
Cn1c(SCC(=O)Nc2nnc(-c3cccc(F)c3)s2)nnc1-c1ccc(F)cc1 [Example 3, N-[5-(3-fluorophenyl)-1,3,4-thiadizole-2-yl]-2-{[5-(4-fluorophenyl)-4-methyl-4H-1,2,4-triazole-3-yl]sulfanyl}acetamide] | 1290
CCn1c(SCC(=O)Nc2nnc(-c3ccc(F)cc3)s2)nnc1-c1ccncc1 [Example 31, 2-{[4-Ethyl-5-(pyridin-4-yl)-4H-1,2,4-triazol-3-yl]sulfanyl}-N-[5-(4-fluorophenyl)-1,3,4-thiadiazol-2-yl]acetamide] | 99
CCn1c(SCC(=O)Nc2nnc(-c3ccc(F)c(F)c3)s2)nnc1-c1ccc(F)cc1 [Example 46, N-[5-(3,4-difluorophenyl)-1,3,4-thiadiazol-2-yl]-2-{[4-ethyl-5-(4-fluorophenyl)-4H-1,2,4-triazol-3-yl]sulfanyl}acetamide] | 385
CCn1c(SCC(=O)Nc2nnc(-c3ccc(OC)c(F)c3)s2)nnc1-c1ccc(F)cc1 [Example 45, 2-{[4-ethyl-5-(4-fluorophenyl)-4H-1,2,4-triazol-3-yl]sulfanyl}-N-[5-(3-fluoro-4-methoxyphenyl)-1,3,4-thiadiazol-2-yl]acetamide] | 182
CCn1c(SCC(=O)Nc2nnc(-c3ccc(O)cc3)s2)nnc1-c1ccc(F)cc1 [Example 34, 2-{[4-Ethyl-5-(4-fluorophenyl)-4H-1,2,4-triazol-3-yl]sulfanyl}-N-[5(4-hydroxyphenyl)-1,3,4-thiadiazol-2-yl]acetamide] | 61
CCn1c(SCC(=O)Nc2nnc(-c3ccc(OC)cc3)s2)nnc1-c1cccc(Cl)c1 [Example 39, 2-{[5-(3-chlorophenyl)-4-ethyl-4H-1,2,4-triazol-3-yl]sulfanyl}-N-[5-(4-methoxyphenyl)-1,3,4-thiadiazol-2-yl]acetamide] | 113
COc1ccc(-c2nnc(NC(=O)CSc3nnc(-c4ccccc4)n3CCN)s2)cc1 [Example 49, 2-{[4-(2-aminoethyl)-5-phenyl-4H-1,2,4-triazol-3-yl]sulfanyl}-N-[5-(4-methoxyphenyl) 1,3,4 thiadiazol-2-yl]acetamide] | 373
CCn1c(SCC(=O)Nc2nnc(-c3ccc(OC)cc3)s2)nnc1-c1cccc(F)c1 [Example 18, 2-{[4-Ethyl-5-(3-fluorophenyl)-1,2,4-triazol-3-yl]sulfanyl}-N-[5-(4-methoxyphenyl)-1,3,4-thiadiazol-2-yl]acetamide] | 135
CCn1c(SCC(=O)Nc2nnc(-c3ccc(OC)cc3)s2)nnc1-c1ccccc1C [Example 13, 2-{[4-Ethyl-5-(2-methylphenyl)-4H-1,2,4-triazol-3-yl]sulfanyl}-N-[5-(4-methoxyphenyl)-1,3,4-thiadiazol-2-yl]acetamide] | 323
CCn1c(SCC(=O)Nc2nnc(-c3ccc(F)cc3)s2)nnc1-c1ccccn1 [Example 29, 2-{[4-Ethyl-5-(pyridin-2-yl)-4H-1,2,4-triazol-3-yl]sulfanyl}-N-[5-(4-fluorophenyl)-1,3,4-thiadiazol-2-yl]acetamide] | 427
COc1ccc(-c2nnc(NC(=O)CSc3nnc(-c4ccc(F)cc4)n3C)s2)cc1 [Example 6, 2-{[5-(4-Fluorophenyl)-4-methyl-4H-1,2,4-triazole-3-yl]sulfanyl}-N-[5-(4-methoxyphenyl)-1,3,4-thiadizole-2-yl]-acetamide] | 253
COc1ccc(-c2nnc(NC(=O)CSc3nnc(-c4ccccc4)n3CCCO)s2)cc1 [Example 51, 2-{[4-(3-hydroxypropyl)-5-phenyl-4H-1,2,4-triazol-3-yl]sulfanyl}-N-[5-(4-methoxyphenyl)-1,3,4-thiadiazol-2-yl]acetamide] | 86
CCn1c(SCC(=O)Nc2nnc(-c3ccc(OC)cc3)s2)nnc1-c1cccnc1 [Example 20, 2-{[4-Ethyl-5-(pyridin-3-yl)-4H-1,2,4-triazol-3-yl]sulfanyl}-N-[5-(4-methoxyphenyl)-1,3,4-thiadiazol-2-yl]acetamide] | 56
CCn1c(SCC(=O)Nc2nnc(-c3ccc(OC)cc3)s2)nnc1-c1ccc(F)cc1 [Example 11, 2-{[4-Ethyl-5-(4-fluorophenyl)-4H-1,2,4-triazol-3-yl]sulfanyl}-N-[5-(4-methoxyphenyl)-1,3,4-thiadiazol-2-yl]acetamide] | 40
CCn1c(SCC(=O)Nc2nnc(-c3ccc(C#N)cc3)s2)nnc1-c1ccc(F)cc1 [Example 47, N-[5-(4-cyanophenyl)-1,3,4-thiadiazol-2-yl]-2-{[4-ethyl-5-(4-fluorophenyl)-4H-1,2,4-triazol-3-yl]sulfanyl}acetamide] | 114
CCn1c(SCC(=O)Nc2nnc(-c3ccc(OC)cc3)s2)nnc1-c1cccc(C)c1 [Example 14, 2-{[4-Ethyl-5-(3-methylphenyl)-4H-1,2,4-triazol-3-yl]sulfanyl}-N-[5-(4-methoxyphenyl)-1,3,4-thiadiazol-2-yl]acetamide] | 172
CCn1c(SCC(=O)Nc2nnc(-c3ccc(OS(C)(=O)=O)cc3)s2)nnc1-c1ccc(F)cc1 [Example 36, 4-[5-(2-{[4-Ethyl-5-(4-fluorophenyl)-4H-1,2,4-triazol-3-yl]sulfanyl}acetamido)-1,3,4-thiadiazol-2-yl]phenyl methanesulfonate] | 129
CCn1c(SCC(=O)Nc2nnc(-c3ccc(OC)cc3)s2)nnc1-c1ccncc1 [Example 21, 2-{[4-Ethyl-5-(pyridin-4-yl)-4H-1,2,4-triazol-3-yl]sulfanyl}-N-[5-(4-methoxyphenyl)-1,3,4-thiadiazol-2-yl]acetamide] | 68
O=C(CSc1nnc(-c2ccc(F)cc2)n1C1CC1)Nc1nnc(-c2ccc(F)cc2)s1 [Example 44, 2-{[4-cyclopropyl-5-(4-fluorophenyl)-4H-1,2,4-triazol-3-yl]sulfanyl}-N-[5-(4-fluorophenyl)-1,3,4-thiadiazol-2-yl]acetamide] | 168
CCn1c(SCC(=O)Nc2nnc(-c3ccc(S(C)(=O)=O)cc3)s2)nnc1-c1ccc(F)cc1 [Example 53, 2-{[4-ethyl-5-(4-fluorophenyl)-4H-1,2,4-triazol-3-yl]sulfanyl}-N-[5-(4-methanesulfonylphenyl)-1,3,4-thiadiazol-2-yl]acetamide] | 134
CCn1c(SCC(=O)Nc2nnc(-c3ccc(F)cc3)s2)nnc1-c1ccc(OC)cc1 [Example 26, 2-{[4-Ethyl-5-(4-methoxyphenyl)-4H-1,2,4-triazol-3-yl]sulfanyl}-N-[5-(4-fluorophenyl)-1,3,4-thiadiazol-2-yl]acetamide] | 477
Cn1c(SCC(=O)Nc2nnc(-c3ccccc3F)s2)nnc1-c1ccc(Cl)cc1 [Example 7, 2-{[5-(4-Chlorophenyl)-4-methyl-4H-1,2,4-triazole-3-yl]sulfanyl}-N-[5-(2-fluorophenyl)-1,3,4-thiadizole-2-yl]-acetamide] | 260
CCn1c(SCC(=O)Nc2nnc(-c3ccc(CS(C)(=O)=O)cc3)s2)nnc1-c1ccc(F)cc1 [Example 54, 2-{[4-ethyl-5-(4-fluorophenyl)-4H-1,2,4-triazol-3-yl]sulfanyl}-N-{5-[4-(methanesulfonylmethyl)phenyl]-1,3,4-thiadiazol-2-yl}acetamide] | 901
